Source: patent US20130065818A1, “Arylamide Compounds And Compositions And Uses Thereof” (POLYMEDIX, priority 2006, published 2013)
Values after ≈ are worked out from the molar mass of the structure shown. Values joined by “and” are separate entries in the source; they are usually repeats but may differ in a detail not shown here. Equal values may be shown once. “Also recorded” adds a separate entry of the source.

Experiments:
[1] = tested on: Ciprofloxacin Susceptible (CS) S. aureus (CSSA); test: MIC of clinical ocular isolates (Example 1); format: cell-based; settings: Staphylococcus aureus; CSSA clinical ocular isolates (n=27)
[2] = tested on: Ciprofloxacin Resistant (CR) S. aureus (CRSA); test: MIC of clinical ocular isolates (Example 1); format: cell-based; settings: Staphylococcus aureus; CRSA clinical ocular isolates (n=28)
CS S. epidermidis (CSSE) = test: MIC of clinical ocular isolates (Example 1); format: cell-based; settings: Staphylococcus epidermidis; CSSE clinical ocular isolates (n=26)
CR S. epidermidis (CRSE) = test: MIC of clinical ocular isolates (Example 1); format: cell-based; settings: Staphylococcus epidermidis; CRSE clinical ocular isolates (n=26)
St. pneumoniae (SP) = test: MIC of clinical ocular isolates (Example 1); format: cell-based; settings: Streptococcus pneumoniae; SP clinical ocular isolates (n=27)
St. viridans group (SV) = test: MIC of clinical ocular isolates (Example 1); format: cell-based; settings: Streptococcus viridans
Moraxella Species (MS) = test: MIC of clinical ocular isolates (Example 1); format: cell-based; settings: MS clinical ocular isolates (n=25)
H. influenzae (HI) = test: MIC of clinical ocular isolates (Example 1); format: cell-based; settings: Haemophilus influenzae; HI clinical ocular isolates (n=26)
P. aeruginosa (PA) = test: MIC of clinical ocular isolates (Example 1); format: cell-based; settings: Pseudomonas aeruginosa; PA clinical ocular isolates (n=26)
Serratia marcescens (SM) = test: MIC of clinical ocular isolates (Example 1); format: cell-based; settings: SM clinical ocular isolates (n=27)
[3] = tested on: fluoroquinolone-resistant, methicillin-resistant Staphylococcus aureus (K950); test: NZW rabbit keratitis model, corneal colony counts; format: in vivo; settings: for Corneal colony count, Mean / Corneal colony count, Median / Corneal colony count, TrMean: N=3; for Corneal colony count, log / Corneal colony count: individual corneas; for Corneal colony count: Inoculum = 1048 cfu/cornea, 1 hour after final drop; for Log10 CFU/ml, group comparison (Duncan Multiple Comparisons Test): P = 0.05; for Statistical comparison of corneal colony counts (< = significantly fewer colony counts): drops every 15 min
Text: (§1) One purpose of the following experiments was to compare the efficacy of 1% Oligomer 2, 0.5% Oligomer 2, and 5% vancomycin in the treatment of a fluoroquinolone-resistant, methicillin-resistant Staphylococcus aureus infection in the NZW rabbit keratitis model with or without intact corneal epithelia.
Nothing was done to the right eyes.
as §1, with “0.25%” for “1%”, “with and without 0.005% benzalkonium chloride,” for “0.5% Oligomer 2,”, “epithelia. The 0.005% benzalkonium chloride has been added to try to increase the penetration of 0.25% Oligomer 2 through the corneal epithelium.” for “epithelia.”
One purpose of the following experiments was to determine the efficacy of 0.25% Oligomer 4, with and without 200 μM Farnesol, and 200 μM Farnesol in the treatment of a fluoroquinolone-resistant and methicillin-resistant Staphylococcus aureus infection in the NZW rabbit keratitis model with or without intact corneal epithelia. The 200 μM Farnesol has been added to try to increase the efficacy and penetration of 0.25% Oligomer 4 through the corneal epithelium.

[4] = NZW rabbit keratitis model, clinical evaluation (Total Ocular Score); settings: for Chemosis score / Conj. score / Corneal Edema score / Corneal Infiltrate score / Discharge score / Iritis score / Total Score: individual eyes, Ker-1, drops every 15 min, 19 doses; for Chemosis score / Conj. score / Corneal Edema score / Corneal Infiltrate score / Discharge score / Iritis score: scale 0 = Normal to 3.0 = Severe; for Total Score: sum of six signs
Procedure: Fifteen rabbits were received from Myrtles' Rabbitry, Thompson Station, TN. The clinical isolate of fluoroquinolone-resistant, methicillin-resistant (MRSA) Staphylococcus aureus (K950) was subcultured on 5% sheep blood agar and incubated at 37° C. in 6% CO2 overnight. The next morning, the MRSA strain was suspended in sterile trypticase soy broth to a 0.5 McFarland Standard, containing approximately 5×10^8 cfu/ml of bacteria. The absorbance of the suspension was measured at 650 nm using a Beckman DU-70 spectrophotometer. OD readings of 0.07 corresponded to 5×10^8 cfu/ml of bacteria. This concentration was appropriately diluted in sterile trypticase soy broth to provide the inoculum of approximately 1,000 (1.0×10^3) cfu/eye in 25 μl. Colony counts were performed on the inoculum to determine the actual cfu inoculated. Following general anesthesia with ketamine and xylazine and topical anesthesia with proparacaine and prior to bacterial inoculation in the left eyes, 6 mm areas of the corneal epithelia was removed centrally with an Amoils epithelial scrubber. Nothing was done to the right eyes. The 15 rabbits were then inoculated intrastromally in both eyes with 25 μl of the bacterial dilution of approximately 10^3 cfu/eye of the bacteria. The bacterial inoculation of the left eyes was directly under the epithelial defect created by the Amoils epithelial scrubber. The epithelia were removed in the left corneas in order to determine whether this layer of the cornea is a barrier for Oligomer 2 penetration when compared to the right cornea with an intact epithelium. A colony count was done on the inoculum to determine the actual cfu inoculated. The rabbits were immediately treated with analgesia in the form of and intramuscular injection of ketoprofen, 1.5 mg/kg. After 4 hours, the 15 rabbits were divided into 4 treatment groups and one untreated control group sacrificed at the onset of therapy. Both eyes of each rabbit of the treatment groups were treated with one 37 μl drop of the coded solutions or control Saline or 1 drop of vancomycin from its dropper bottle. The Oligomer 2 concentrations were masked and labeled as 1 and 2. The masked concentrations were 1% Oligomer 2 and 0.5% Oligomer 2 but the specific concentrations of solutions were not known to the lab workers who carried out the experiment. The vancomycin and control (Tris-Buffered Saline) were not masked.
Treatment was scheduled for every 15 minutes for 5 hours (21 total doses). However, PMX-1 and PMX-2 were exhausted after the 19th dose. Therefore, the actual treatment was 15 minutes for 4.5 hours (19 total doses). The 3 rabbits in group V were sacrificed 4 hours PI and large 9.5 mm buttons were removed from the corneas. These were placed in 1 ml of PBS and kept on ice. The corneal buttons were homogenized for 25 seconds on ice using the motorized homogenizer. After homogenization, colony counts were done on the homogenates using 5% sheep blood agar plates to determine the amount of bacteria contained in the corneas at the onset of therapy. Following the completion of therapy, the eyes were examined for clinical signs of infection. One hour after the final treatment, the treated rabbits (Groups I-IV) were sacrificed and large 9.5 mm buttons were removed from the corneas. These were placed in 1 ml of PBS and kept on ice. The corneal buttons were homogenized for 25 seconds on ice using the motorized homogenizer. After homogenization, colony counts were performed on the homogenates using 5% sheep blood agar plates to determine the amount of bacteria contained in the corneas after treatment. The next morning, the plates were counted and the number of cfu/eye of Staphylococcus aureus was determined for each cornea.
Fifteen rabbits were received from Myrtles' Rabbitry, Thompson Station, TN.

[5] = tested on: Fluoroquinolone-Resistant Methicillin-Resistant Staphylococcus aureus Strain K950; test: MIC characterization of strain K950; format: cell-based; settings: read-out: MIC (Minimum Inhibitory Concentration)

SMILES: CC(C)(C)c1cc(NC(=O)CCCCNC(=N)N)c(SCCNC(=N)N)c(NC(=O)c2cc(C(=O)Nc3cc(C(C)(C)C)cc(NC(=O)CCCCNC(=N)N)c3SCCNC(=N)N)ncn2)c1 [Oligomer 1]
- MIC50 [1]: 0.125 µg/mL
- MIC90 [1]: 0.25 µg/mL
- MIC50 [2]: 0.25 µg/mL
- MIC90 [2]: 0.25 µg/mL
- MIC50 (CS S. epidermidis (CSSE)): 0.03 µg/mL
- MIC90 (CS S. epidermidis (CSSE)): 0.125 µg/mL
- MIC50 (CR S. epidermidis (CRSE)): 0.03 µg/mL
- MIC90 (CR S. epidermidis (CRSE)): 0.03 µg/mL
- MIC50 (St. pneumoniae (SP)): 0.5 µg/mL
- MIC90 (St. pneumoniae (SP)): 1 µg/mL
- MIC50 (St. viridans group (SV)): 4 µg/mL
- MIC90 (St. viridans group (SV)): 16 µg/mL
- MIC50 (Moraxella Species (MS)): 0.5 µg/mL
- MIC90 (Moraxella Species (MS)): 0.5 µg/mL
- MIC50 (H. influenzae (HI)): 16 µg/mL
- MIC90 (H. influenzae (HI)): 32 µg/mL
- MIC50 (P. aeruginosa (PA)): 4 µg/mL
- MIC90 (P. aeruginosa (PA)): 8 µg/mL
- MIC50 (Serratia marcescens (SM)): 16 µg/mL
- MIC90 (Serratia marcescens (SM)): 64 µg/mL

SMILES: CN[C@H](CC(C)C)C(=O)N[C@H]1C(=O)N[C@@H](CC(N)=O)C(=O)N[C@H]2C(=O)N[C@H]3C(=O)N[C@H](C(=O)N[C@H](C(=O)O)c4cc(O)cc(O)c4-c4cc3ccc4O)[C@H](O)c3ccc(c(Cl)c3)Oc3cc2cc(c3O[C@@H]2O[C@H](CO)[C@@H](O)[C@H](O)[C@H]2O[C@H]2C[C@](C)(N)[C@H](O)[C@H](C)O2)Oc2ccc(cc2Cl)[C@H]1O [VAN]
- Corneal colony count, Mean ([3]; Abraded Epithelium): 2.674 Log10 CFU/ml
- Corneal colony count, Median ([3]; Abraded Epithelium): 2.845 Log10 CFU/ml
- Corneal colony count, TrMean ([3]; Abraded Epithelium): 2.674 Log10 CFU/ml
- Corneal colony count, log ([3]; Abraded Epithelium): 2.301 Log10 CFU/ml and 2.845 Log10 CFU/ml and 2.875 Log10 CFU/ml
- Corneal colony count ([3]; Abraded Epithelium): 200 CFU/ml and 700 CFU/ml and 750 CFU/ml
- Log10 CFU/ml, group comparison (Duncan Multiple Comparisons Test) ([3]; Abraded Epithelium, < = significantly fewer colony counts): PMX-2 = VAN = PMX-1 < ONSET = CON
- Corneal colony count, Mean ([3]; Intact Epithelium): 2.7239 Log10 CFU/ml
- Corneal colony count, Median ([3]; Intact Epithelium): 2.7404 Log10 CFU/ml
- Corneal colony count, TrMean ([3]; Intact Epithelium): 2.7239 Log10 CFU/ml
- Corneal colony count, log ([3]; Intact Epithelium): 2.74 Log10 CFU/ml and 2.653 Log10 CFU/ml and 2.778 Log10 CFU/ml
- Corneal colony count ([3]; Intact Epithelium): 550 CFU/ml and 450 CFU/ml and 600 CFU/ml
- Log10 CFU/ml, group comparison (Duncan Multiple Comparisons Test) ([3]; Intact Epithelium, < = significantly fewer colony counts): VAN < PMX-1 = PMX-2 = ONSET = CON
- Chemosis score ([4]; Abraded Epithelium (AE)): 3.0 and 2.5 (2×)
- Conj. score ([4]; Abraded Epithelium (AE)): 3.0 and 2.5 (2×)
- Corneal Edema score ([4]; Abraded Epithelium (AE)): 0.5 and 1.0 (2×)
- Corneal Infiltrate score ([4]; Abraded Epithelium (AE)): 0.5 and 0 (2×)
- Discharge score ([4]; Abraded Epithelium (AE)): 3.0 and 2.0 and 2.5
- Iritis score ([4]; Abraded Epithelium (AE)): 1.0 and 1.5 (2×)
- Total Score ([4]; Abraded Epithelium (AE)): 11.0 and 9.5 and 10.0
- Total Ocular Score, Mean ([4]; Abraded Epithelium, N=3): 10.167
- Total Ocular Score, Median ([4]; Abraded Epithelium, N=3): 10.000
- Total Ocular Score, TrMean ([4]; Abraded Epithelium, N=3): 10.167
- Total Ocular Score, group comparison (Duncan Multiple Comparisons Test) ([4]; IE and AE groups, P = 0.05): CON IE = CON AE < VAN AE = PMX-1AE = PMX-2AE = VAN IE < PMX-1 IE = PMX-2 IE
- Chemosis score ([4]; Intact Epithelium (IE)): 3.0
- Conj. score ([4]; Intact Epithelium (IE)): 2.5 and 3.0 (2×)
- Corneal Edema score ([4]; Intact Epithelium (IE)): 1.0
- Corneal Infiltrate score ([4]; Intact Epithelium (IE)): 0 (2×) and 0.5
- Discharge score ([4]; Intact Epithelium (IE)): 3.0 (2×) and 2.5
- Iritis score ([4]; Intact Epithelium (IE)): 2.0 (2×) and 1.0
- Total Score ([4]; Intact Epithelium (IE)): 11.5 and 12.0 and 11.0
- Total Ocular Score, Mean ([4]; Intact Epithelium, N=3): 11.500
- Total Ocular Score, Median ([4]; Intact Epithelium, N=3): 11.500
- Total Ocular Score, TrMean ([4]; Intact Epithelium, N=3): 11.500

SMILES: CN[C@H](CC(C)C)C(=O)N[C@H]1C(=O)N[C@@H](CC(N)=O)C(=O)N[C@H]2C(=O)N[C@H]3C(=O)N[C@H](C(=O)N[C@H](C(=O)O)c4cc(O)cc(O)c4-c4cc3ccc4O)[C@H](O)c3ccc(c(Cl)c3)Oc3cc2cc(c3O[C@@H]2O[C@H](CO)[C@@H](O)[C@H](O)[C@H]2O[C@H]2C[C@](C)(N)[C@H](O)[C@H](C)O2)Oc2ccc(cc2Cl)[C@H]1O [Vancomycin, reference compound]
- MIC [5]: 2 µg/mL (≈ 1.38 µM)
- Statistical comparison of corneal colony counts (< = significantly fewer colony counts) ([3]; Ker-1 (Example 9), abraded (removed) epithelium, 19 doses): Vancomycin<Saline Control
- Statistical comparison of corneal colony counts (< = significantly fewer colony counts) ([3]; Ker-1 (Example 9), intact epithelium, 19 doses): Vancomycin<Saline Control; also recorded: Vancomycin<PMX-1; also recorded: Vancomycin<PMX-2
- Statistical comparison of corneal colony counts (< = significantly fewer colony counts) ([3]; Ker-2 (Example 10), abraded (removed) epithelium, 21 doses): Vancomycin<Saline Control
- Statistical comparison of corneal colony counts (< = significantly fewer colony counts) ([3]; Ker-2 (Example 10), intact epithelium, 21 doses): Vancomycin<Saline Control; also recorded: Vancomycin<PMX-B
- Effect of Abraded Epithelium on colony counts (Intact vs. Abraded, two sample T-test) ([3]; Log10 CFU/ml, < = significantly fewer colony counts): Abraded = Intact
- Effect of Abraded Epithelium on Effectiveness of Each Test Solution (colony counts, abraded vs. intact) ([3]; Oligomer 2 study, two sample T-test, < = significantly fewer colony counts): Abraded = Intact
- Total Ocular Score, Median ([4]; Oligomer 2 study, abraded epithelium, N 3): 9.5
- Total Ocular Score, Median ([4]; Oligomer 2 study, intact epithelium, N 3): 9.5
